Results from patent US20170209373A1, “MULTIFUNCTIONAL POLYMERIC NANOPARTICLE FOR DIAGNOSIS OR TREATMENT OF CEREBRAL DISEASES AND A PREPARATION METHOD THEREOF” (KOREA INSTITUTE OF SCIENCE AND TECHNOLOGY, priority 2016, published 2017).

Tested on: luciferase-expressing U-87 MG cells
Test: Cancer treating effect in brain tumor model (bioluminescence signals)
Format: in vivo, mouse
Procedure: The NP-cur aqueous dispersion prepared according to Example 1-1 was intravenously injected daily at a dose of 200 μL from day 3 of the transplantation of the cancer cells in the brain tumor model prepared according to Example 3-1. […] For the control groups to which the drug was not administered, a group (control of FIG. 11) to which the F-127 aqueous solution was intravenously injected daily for 3 weeks at a dose of 200 μL, and a group (free curcumin of FIG. 11) to which curcumin which was not loaded in the polymeric nanoparticles but was dissolved in an organic solvent, dimethyl sulfoxide (DMSO, Daejung Chemicals & Metals Co., LTD., Korea), was intraperitoneally injected at a dosage of 360 mg/kg daily for 3 weeks was selected to observe the bioluminescence signals in the same manner as in the NP-cur administration experimental group. Finally, the bioluminescence signals observed in the two control groups and experimental group and the results of comparative analysis thereof are shown in FIG. 11.

With `COc1cc(/C=C/C(=O)CC(=O)/C=C/c2ccc(O)c(OC)c2)ccc1O` [curcumin] the “effect on tumor growth” value (NP-cur 0.2 mg/kg/d i.v., curcumin solution 360 mg/kg/d i.p.) was “only slightly slowed” and the “bioluminescence intensity of brain tumor over time (days 7, 14, 21)” value (NP-cur 200 μL i.v. daily (0.2 mg/kg/d curcumin), free curcumin in DMSO i.p. 360 mg/kg daily for 3 weeks) was “still showed a large signal increase”.
